Data from patent US9133230B2, “Hydrazone derivatives having potent antitumor activity toward multi-drug resistant tumor cells” (THE UNITED STATES OF AMERICA AS REPRESENTED BY THE …, priority 2011, dated 2015).
Where two headings read alike, the source gives them in different places.

Assays:
[1] = system: KB-A1000; settings: MDR cell line characterisation; cited from earlier work
[2] = system: HL60-VCR; settings: MDR cell line characterisation; cited from earlier work
[3] = system: HL60-VCR; test: MTS cytotoxicity on MDR tumor cells, HL60-VCR; type: cell-based; settings: Vincristine (VCR) resistant, 72 hr incubation
[4] = system: 60 human tumor cell lines; test: NCI 60 human tumor cell line screen, all cell lines; type: cell-based; settings: for cells found to be the most sensitive: NCI screen, by cancer type; for mean GI50 (MG-MID): average of the GI50 values for all the cell lines tested, drug concentrations 10^−4-10^−8 M, read-out: MG-MID (mean graph midpoint)
From the text: (§1) Selected compounds were submitted for testing in the organ-specific panel of human tumor cell lines at the National Cancer Institute, Bethesda, Md. This screen utilized 60 human tumor cell lines, representing leukemia, melanoma, and cancers of the lung, colon, brain, ovary, kidney, prostate, and breast (Boyd, M. R., “Status of the NCl preclinical antitumor drug discovery screen”. In Principles and practice of oncology updates; De Vita, V. T., Jr. Hellman, S., Rosenberg, S. A., Eds.; Lippincott: Philadelphia, Pa., 1989; Vol. 3, pp 1-12).
(§2) The MG MID value is the average of the GI50 values for all the cell lines tested for drug concentrations in the range of 10^−4-10^−8 M (See website domain: dtp.nci.nih.gov/dtp).

[5] = system: prostate cancer cell lines; test: NCI 60 human tumor cell line screen, prostate; type: cell-based; settings: arithmetic mean of two to nine cancer cell lines, read-out: Inhibitory concentration GI50, prostrate
From the text: as §1, §2

[6] = system: human colorectal carcinoma HT29; test: Annexin-V FACS analysis of apoptosis; type: cell-based; settings: FIGS. 3 and 4, treated versus control cells
Experimental: This activation was through ERK signaling and not through JNK signaling, resulting in PARP cleavage after 16 h. […] Activation of NFkB (p50) was also observed following treatment with these compounds.

[7] = system: leukemia cell lines; test: NCI 60 human tumor cell line screen, leukemia; type: cell-based; settings: arithmetic mean of two to nine cancer cell lines, read-out: Inhibitory concentration GI50, leukemia
From the text: as §1, §2

[8] = system: colon cancer cell lines; test: NCI 60 human tumor cell line screen, colon; type: cell-based; settings: arithmetic mean of two to nine cancer cell lines, read-out: Inhibitory concentration GI50, colon
From the text: as §1, §2

[9] = system: renal cancer cell lines; test: NCI 60 human tumor cell line screen, renal; type: cell-based; settings: arithmetic mean of two to nine cancer cell lines, read-out: Inhibitory concentration GI50, renal
From the text: as §1, §2

[10] = system: CNS cancer cell lines; test: NCI 60 human tumor cell line screen, CNS; type: cell-based; settings: arithmetic mean of two to nine cancer cell lines, read-out: Inhibitory concentration GI50, CNS
From the text: as §1, §2

[11] = system: HL60; test: MTS cytotoxicity on MDR tumor cells, HL60; type: cell-based; settings: 72 hr incubation
[12] = system: human myelogenous leukemia K562; test: MTS cytotoxicity assay, K562; type: cell-based
Experimental: (§3) In order to obtain information about the growth-inhibiting action of hydrazones reported in the present invention on tumor cells, growth inhibition was assessed for the following human tumor cell lines: human myelogenous leukemia K562, human cervical adenocarcinoma HeLa, human colon adenocarcinoma Caco-2, human colon carcinoma HT-29, human colon carcinoma HCT-15, and human breast carcinoma MCF-7.
(§4) The K562, HeLa, HT-29, HCT-15, Caco-2, and MCF-7 cell lines were obtained from the American type Culture Collection (ATCC, Manassas, Va.). K562 cells were maintained in RPMI 1640 medium (Gibco/Life Technologies, Gaithersburg, Md.) containing 10% heat-inactivated fetal bovine serum (FBS) (Atlanta Biologicals, Atlanta, Ga.) and 10000 U/L penicillin and 50 mg/L streptomycin. HeLa, HT-29, HCT-15, Caco-2 and MCF-7 cells were maintained in MEM with Earl's balanced salts, 10% FBS, penicillin, and streptomycin as above. Logarithmically growing HT-29, Caco-2, and MCF-7 cells were incubated with 0.05% trypsin containing 1 mM EDTA at 37° C. for about 5 min until cells were nonadherent and formed a single cell suspension. Trypsin activity was neutralized by adding 20-fold excess of the serum-containing medium. Cells were cultured at 37° C. in an atmosphere of air and 5% CO2.
(§5) Cytotoxicity assays were conducted by tetrazolium reduction of 3-(4,5-dimethylthiazol-2-yl)-5-(3-carboxymethoxyphenyl)-2-(4-sulfophenyl)-2H-tetrazolium (MTS) with N-methylphenazonium methyl sulfate (PMS) (CellTiter Assay, Promega, Madison, Wis.). Logarithmically growing cells were plated in 0.1 mL aliquots in 96-well microtiter plates. Cells were plated at an initial density of about 5000 cells/mL and allowed to acclimatize for 24 h. Cell suspensions were treated with various dilutions of compounds in triplicate, mixed well, and allowed to incubate for 48 h at 37° C. in an atmosphere of air and 5% CO2. To the cell suspension was added 20 μL of tetrazolium reagent, the mixture was incubated for 2 h at 37° C. in an atmosphere of air and 5% CO2, and absorbance at 490 nm was read by microplate reader. Control plates with serial dilutions of cell types were counted as a control for the assay. In all cases, controls indicated a linear response versus cell number, R^2≧0.99.

[13] = system: human colon carcinoma HCT-15; test: MTS cytotoxicity assay, HCT-15; type: cell-based
Experimental: as §3, §4, §5

[14] = system: human cervical adenocarcinoma HeLa; test: MTS cytotoxicity assay, HeLa; type: cell-based; settings: 48 h incubation
Experimental: as §3, §4, §5

[15] = system: human colon carcinoma HT-29; test: MTS cytotoxicity assay, HT-29; type: cell-based
Experimental: as §3, §4, §5

[16] = system: human breast carcinoma MCF-7; test: MTS cytotoxicity assay, MCF-7; type: cell-based
Experimental: as §3, §4, §5

[17] = system: human colorectal carcinoma HT29; test: Western blot of signal transduction pathways in HT29 cells; type: cell-based; settings: HT29, IC50 dose
Experimental: The newly synthesized hydrazones RPC038, RPC042, and RPC046 had shown anti-tumor activity against 60 human cancer cell lines panel of the National Cancer Institute and on multi-drug resistant cell lines. The present studies were conducted to evaluate their action on signal transduction pathways in human colorectal carcinoma HT29. All the three compounds were examined at their IC50 doses.
Human colorectal carcinoma HT29 cells were obtained from the National Cancer Institute, Bethesda, Md., USA, and maintained in 5% CO2 at 37° C. in minimum essential media (Life Technologies, Inc., Grand Island, N.Y., USA) supplemented with 1% penicillin, streptomycin (Invitrogen, Carlsbad, Calif., USA), and 10% fetal bovine serum for optimal growth. HT29 cells (1×10^6) were plated in […], and 24 h later, fresh media was added and treated with the RPC038, RPC042 and RPC046 for indicated time points (2, 4, 8, 16 and 24 h). The cells were then washed with cold phosphate buffered saline (PBS) and taken in 1 ml PBS on ice and centrifuged at 4° C. The pellet was resuspended in appropriate volumes of radio immunoprecipitation assay buffer with protease inhibitor, kept on ice for 45 min and subsequently centrifuged at 4° C. An aliquot of supernatant (protein extract) was used to estimate the protein concentration. An aliquot of protein extract (40 μg) was subjected to Western blot analysis on a 12% polyacrylamide gel and transferred to nitrocellulose membrane. Blots were blocked, incubated with primary anti-pMEK, pERK, pJNK, pcjun, ERK, JNK, Cjun, Caspase-8, Caspase-6, PARP cleavage, or GAPDH antibodies (Cell Signaling Technology, Danvers, Mass.) and then conjugated with a secondary anti-mouse or an anti-rabbit horseradish […] antibody, and detected by ChemiDoc™ XRS+ System with Image Lab™ Software.

[18] = system: human colon adenocarcinoma Caco-2; test: MTS cytotoxicity assay, Caco-2; type: cell-based
Experimental: as §3, §4, §5

[19] = system: nonsmall cell lung cancer cell lines; test: NCI 60 human tumor cell line screen, NSCL; type: cell-based; settings: arithmetic mean of two to nine cancer cell lines, read-out: Inhibitory concentration GI50, NSCL
From the text: as §1, §2

[20] = system: breast cancer cell lines; test: NCI 60 human tumor cell line screen, breast; type: cell-based; settings: arithmetic mean of two to nine cancer cell lines, read-out: Inhibitory concentration GI50, breast
From the text: as §1, §2

[21] = system: human colorectal carcinoma HT29; test: Western blot of signal transduction pathways in HT29 cells; type: cell-based; settings: HT29, IC50 dose; remark: listed apart in the source
[22] = system: melanoma cell lines; test: NCI 60 human tumor cell line screen, melanoma; type: cell-based; settings: arithmetic mean of two to nine cancer cell lines, read-out: Inhibitory concentration GI50, melanoma
From the text: as §1, §2

[23] = system: ovarian cancer cell lines; test: NCI 60 human tumor cell line screen, ovarian; type: cell-based; settings: arithmetic mean of two to nine cancer cell lines, read-out: Inhibitory concentration GI50, ovarian
From the text: as §1, §2

In the case of CC[C@]1(O)C[C@@H]2CN(CCc3c([nH]c4ccccc34)[C@@](C(=O)OC)(c3cc4c(cc3OC)N(C)[C@H]3[C@@](O)(C(=O)OC)[C@H](OC(C)=O)[C@]5(CC)C=CCN6CC[C@]43[C@@H]65)C2)C1 [vinblastine], the “resistance expressed by KB-A1000” value [1] is given as 43 fold and the “resistance expressed by HL60-VCR” value [2] is given as 620 fold.
In the case of OC[C@H]1OC(n2cnc3c(NN=Cc4ccccn4)ncnc32)[C@H](O)[C@@H]1O (stereo partly shown) [I-9], the GI50 [3] is reported as 1500 nM, the “cells found to be the most sensitive” value [4] is reported as “leukemia, prostate, ovarian, and renal cancer cell lines” and the mean GI50 (MG-MID) [4] is reported as 228 nM. The GI50 [5] was 137 nM, the “Apoptosis (Annexin-V, FACS analysis)” value [6] was “Apoptosis was also established” and the GI50 [7] was 116 nM. For the same compound, the GI50 [8] was 251 nM, the GI50 [9] was 219 nM and the GI50 [10] was 271 nM. The GI50 ([11]; Vincristine (VCR) sensitive) was 1000 nM, the GI50 ([12]; 48 h incubation) was 1500 nM and the GI50 ([13]; 48 h incubation) was less than 1000 nM. It also gave a GI50 [14] of 1200 nM, a GI50 ([15]; 48 h incubation) of 2000 nM and a GI50 ([16]; 48 h incubation) of 2000 nM. The “phosphorylation of ERK (time)” value ([17]; Western blot pERK) was 4 h, the “phosphorylation of JNK” value ([17]; Western blot pJNK (results not shown)) was “without phosphorylation of JNK” and the “MEK activation (time)” value ([17]; Western blot pMEK) was 2 h. For the same compound, the “activation of cjun (time)” value ([17]; Western blot pcjun) was 6 h, the Caspase activation ([17]; initial studies) was “Caspase-3 activation through Caspase-6 and not through Caspase-8” and the GI50 ([18]; 48 h incubation) was 400 nM. For the same compound, the GI50 [19] was 269 nM, the GI50 [20] was 250 nM and the “Activation of NFkB (p50)” value [21] was “observed”. For the same compound, the GI50 [22] was 347 nM and the GI50 [23] was 196 nM.
In the case of COc1cccc2c1C(=O)c1c(O)c3c(c(O)c1C2=O)C[C@@](O)(C(=O)CO)C[C@@H]3O[C@H]1C[C@H](N)[C@H](O)[C@H](C)O1 [doxorubicine], the “resistance expressed by KB-A1000” value [1] is listed as 97 fold and the “resistance expressed by HL60-VCR” value [2] is listed as 8 fold.
For CC(C)=NNc1ncnc2c1ncn2C1O[C@H](CO)[C@@H](O)[C@H]1O (stereo partly drawn) [I-12, (2R,3S,4R)-2-(hydroxymethyl)-5-(6-(2-(propan-2-ylidene)hydrazinyl)-9H-purin-9-yl)tetrahydrofuran-3,4-diol], the GI50 ([3]; HL60/VCR) was 2200 nM, the mean GI50 (MG-MID) ([4]; Homo sapiens) was 847 nM and the “cells found to be the most sensitive” value [4] was “prostate, ovarian, colon, and renal cancer cell lines”. It also gave a GI50 ([5]; Homo sapiens) of 363 nM, a GI50 ([7]; Homo sapiens) of 1270 nM and a GI50 ([8]; Homo sapiens) of 497 nM. It also gave a GI50 ([9]; Homo sapiens) of 516 nM, a GI50 ([10]; Homo sapiens) of 1200 nM and a GI50 ([11]; Homo sapiens, HL-60, Vincristine (VCR) sensitive) of 1800 nM. It also gave a GI50 ([12]; Homo sapiens, K562, 48 h incubation) of 300 nM, a GI50 ([13]; Homo sapiens, HCT-15, 48 h incubation) of 2800 nM and a GI50 ([14]; Homo sapiens, HeLa) of 600 nM. It also gave a GI50 ([15]; Homo sapiens, HT-29, 48 h incubation) of 1600 nM, a GI50 ([16]; Homo sapiens, MCF7, 48 h incubation) of 200 nM and a GI50 ([18]; Homo sapiens, Caco-2, 48 h incubation) of 200 nM. It also gave a GI50 ([19]; Homo sapiens) of 786 nM, a GI50 ([20]; Homo sapiens) of 751 nM and a GI50 ([22]; Homo sapiens) of 1900 nM. For the same compound, the GI50 ([23]; Homo sapiens) was 447 nM.
